Key:
[1] = system: Johnsongrass (Sorghum halepense); assay: Postemergence herbicidal activity, johnsongrass; type: in vivo; conditions: rate of application 0.3 Kg/Ha, rated after 12-17 days
[2] = system: blackgrass (Aloepecurus myosuroides); assay: Preemergence herbicidal activity, blackgrass; type: in vivo; conditions: Rate of Application 0.3 Kg/Ha, examined after 12-17 days
[3] = system: common cocklebur (Xanthium strumarium L.); assay: Postemergence herbicidal activity, cocklebur; type: in vivo; conditions: rate of application 0.3 Kg/Ha, rated after 12-17 days
[4] = system: common chickweed (Stellaria media); assay: Preemergence herbicidal activity, chickweed; type: in vivo; conditions: Rate of Application 0.3 Kg/Ha, examined after 12-17 days
[5] = system: field corn (Zea mays var. Pioneer 3732); assay: Preemergence herbicidal activity, corn; type: in vivo; conditions: Rate of Application 0.3 Kg/Ha, examined after 12-17 days
[6] = system: field corn (Zea mays var. Pioneer 3732); assay: Postemergence herbicidal activity, corn; type: in vivo; conditions: rate of application 0.3 Kg/Ha, rated after 12-17 days
[7] = system: morningglory (Ipomea lacunosa or Ipomea hederacea); assay: Preemergence herbicidal activity, morningglory; type: in vivo; conditions: Rate of Application 0.3 Kg/Ha, examined after 12-17 days
[8] = system: blackgrass (Aloepecurus myosuroides); assay: Postemergence herbicidal activity, blackgrass; type: in vivo; conditions: rate of application 0.3 Kg/Ha, rated after 12-17 days
[9] = system: green foxtail (Setaria viridis); assay: Preemergence herbicidal activity, green foxtail; type: in vivo; conditions: Rate of Application 0.3 Kg/Ha, examined after 12-17 days
[10] = system: velvetleaf (Abutilon theophrasti); assay: Postemergence herbicidal activity, velvetleaf; type: in vivo; conditions: rate of application 0.3 Kg/Ha, rated after 12-17 days
[11] = system: morningglory (Ipomea lacunosa or Ipomea hederacea); assay: Postemergence herbicidal activity, morningglory; type: in vivo; conditions: rate of application 0.3 Kg/Ha, rated after 12-17 days
[12] = system: velvetleaf (Abutilon theophrasti); assay: Preemergence herbicidal activity, velvetleaf; type: in vivo; conditions: Rate of Application 0.3 Kg/Ha, examined after 12-17 days
[13] = system: wheat (Triticum aestivum var. Lew); assay: Preemergence herbicidal activity, wheat; type: in vivo; conditions: Rate of Application 0.3 Kg/Ha, examined after 12-17 days
[14] = system: soybean (Glycine max var. Winchester); assay: Postemergence herbicidal activity, soybean; type: in vivo; conditions: rate of application 0.3 Kg/Ha, rated after 12-17 days
[15] = system: common cocklebur (Xanthium strumarium L.); assay: Preemergence herbicidal activity, cocklebur; type: in vivo; conditions: Rate of Application 0.3 Kg/Ha, examined after 12-17 days
[16] = system: wheat (Triticum aestivum var. Lew); assay: Postemergence herbicidal activity, wheat; type: in vivo; conditions: rate of application 0.3 Kg/Ha, rated after 12-17 days
[17] = system: soybean (Glycine max var. Winchester); assay: Preemergence herbicidal activity, soybean; type: in vivo; conditions: Rate of Application 0.3 Kg/Ha, examined after 12-17 days
[18] = system: Johnsongrass (Sorghum halepense); assay: Preemergence herbicidal activity, johnsongrass; type: in vivo; conditions: Rate of Application 0.3 Kg/Ha, examined after 12-17 days
[19] = system: green foxtail (Setaria viridis); assay: Postemergence herbicidal activity, green foxtail; type: in vivo; conditions: rate of application 0.3 Kg/Ha, rated after 12-17 days
[20] = system: common chickweed (Stellaria media); assay: Postemergence herbicidal activity, chickweed; type: in vivo; conditions: rate of application 0.3 Kg/Ha, rated after 12-17 days

| Structure (SMILES) | Postemergence herbicidal activity (% control) SORHA [1] [%] | PREEMERGENCE HERBICIDAL ACTIVITY (% CONTROL) ALOMY [2] [%] | Postemergence herbicidal activity (% control) XANPE [3] [%] | PREEMERGENCE HERBICIDAL ACTIVITY (% CONTROL) STEME [4] [%] | PREEMERGENCE HERBICIDAL ACTIVITY (% CONTROL) CRN [5] [%] | Postemergence herbicidal activity (% control) CRN [6] [%] | PREEMERGENCE HERBICIDAL ACTIVITY (% CONTROL) IPOSS [7] [%] | Postemergence herbicidal activity (% control) ALOMY [8] [%] | PREEMERGENCE HERBICIDAL ACTIVITY (% CONTROL) SETVI [9] [%] | Postemergence herbicidal activity (% control) ABUTH [10] [%] | Postemergence herbicidal activity (% control) IPOSS [11] [%] | PREEMERGENCE HERBICIDAL ACTIVITY (% CONTROL) ABUTH [12] [%] | PREEMERGENCE HERBICIDAL ACTIVITY (% CONTROL) WHT [13] [%] | Postemergence herbicidal activity (% control) SOY [14] [%] | PREEMERGENCE HERBICIDAL ACTIVITY (% CONTROL) XANPE [15] [%] | Postemergence herbicidal activity (% control) WHT [16] [%] | PREEMERGENCE HERBICIDAL ACTIVITY (% CONTROL) SOY [17] [%] | PREEMERGENCE HERBICIDAL ACTIVITY (% CONTROL) SORHA [18] [%] | Postemergence herbicidal activity (% control) STEME [20] [%] | Postemergence herbicidal activity (% control) SETVI [19] [%] | further results |
| --- | --- | --- | --- | --- | --- | --- | --- | --- | --- | --- | --- | --- | --- | --- | --- | --- | --- | --- | --- | --- | --- |
| Cn1c(C(F)(F)F)cc(=O)n(-c2c(F)cc(Cl)c3[nH]c(C(C)(C)C)nc23)c1=O [Compound 369, 3-(2-T-BUTYL4-CHLORO-6-FLUOROBENZIMIDAZOL-7-YL)-1-METHYL-6-TRIFLUOROMETHYL-2,4(1H,3H)-PYRIMIDINEDIONE] | – | – | – | – | – | – | – | – | – | – | – | – | – | – | – | – | – | – | – | – | inhibition at 300 g/ha ([1]; Sorghum halepense, post-emergence, read-out: Postemergence herbicidal activity (% control) SORHA): 100%; inhibition at 300 g/ha ([2]; Alopecurus myosuroides, pre-emergence, read-out: PREEMERGENCE HERBICIDAL ACTIVITY (% CONTROL) ALOMY): 100%; inhibition at 300 g/ha ([3]; Xanthium strumarium, post-emergence, read-out: Postemergence herbicidal activity (% control) XANPE): 100%; inhibition at 300 g/ha ([4]; Stellaria media, pre-emergence, read-out: PREEMERGENCE HERBICIDAL ACTIVITY (% CONTROL) STEME): 100%; inhibition at 300 g/ha ([5]; Zea mays, pre-emergence, read-out: PREEMERGENCE HERBICIDAL ACTIVITY (% CONTROL) CRN): 100%; inhibition at 300 g/ha ([6]; Zea mays, post-emergence, read-out: Postemergence herbicidal activity (% control) CRN): 100%; melting point: 125 to 130 °C; inhibition at 300 g/ha ([7]; Ipomoea, pre-emergence, read-out: PREEMERGENCE HERBICIDAL ACTIVITY (% CONTROL) IPOSS): 100%; inhibition at 300 g/ha ([8]; Alopecurus myosuroides, post-emergence, read-out: Postemergence herbicidal activity (% control) ALOMY): 100%; inhibition at 300 g/ha ([9]; Setaria viridis, pre-emergence, read-out: PREEMERGENCE HERBICIDAL ACTIVITY (% CONTROL) SETVI): 100%; inhibition at 300 g/ha ([10]; Abutilon theophrasti, post-emergence, read-out: Postemergence herbicidal activity (% control) ABUTH): 100%; inhibition at 300 g/ha ([11]; Ipomoea, post-emergence, read-out: Postemergence herbicidal activity (% control) IPOSS): 100%; inhibition at 300 g/ha ([12]; Abutilon theophrasti, pre-emergence, read-out: PREEMERGENCE HERBICIDAL ACTIVITY (% CONTROL) ABUTH): 100%; inhibition at 300 g/ha ([13]; Triticum aestivum, pre-emergence, read-out: PREEMERGENCE HERBICIDAL ACTIVITY (% CONTROL) WHT): 100%; inhibition at 300 g/ha ([14]; Glycine max, post-emergence, read-out: Postemergence herbicidal activity (% control) SOY): 100%; inhibition at 300 g/ha ([15]; Xanthium strumarium, pre-emergence, read-out: PREEMERGENCE HERBICIDAL ACTIVITY (% CONTROL) XANPE): 100%; inhibition at 300 g/ha ([16]; Triticum aestivum, post-emergence, read-out: Postemergence herbicidal activity (% control) WHT): 80%; inhibition at 300 g/ha ([17]; Glycine max, pre-emergence, read-out: PREEMERGENCE HERBICIDAL ACTIVITY (% CONTROL) SOY): 100%; inhibition at 300 g/ha ([18]; Sorghum halepense, pre-emergence, read-out: PREEMERGENCE HERBICIDAL ACTIVITY (% CONTROL) SORHA): 100%; inhibition at 300 g/ha ([19]; Setaria viridis, post-emergence, read-out: Postemergence herbicidal activity (% control) SETVI): 100% |
| Cn1c(C(F)(F)F)cc(=O)n(-c2c(F)cc(Cl)c3c2nc(C(F)(F)F)n3C)c1=O [Compound 399] | 60 | 60 | 100 | 100 | 95 | 70 | 95 | 50 | 100 | 100 | 100 | 100 | 80 | 95 | 70 | 30 | 95 | 0 | 100 | 70 | – |
| Cn1c(C(F)(F)F)cc(=O)n(-c2c(F)cc(Cl)c3[nH]c(C45CC6CC(CC(C6)C4)C5)nc23)c1=O [Compound 374] | 60 | 40 | 100 | 90 | 10 | 30 | 95 | 25 | 100 | 100 | 95 | 100 | 0 | 80 | 80 | 25 | 30 | 75 | 80 | 80 | – |

Reference: US6352958B1, “Cycloimido-substituted benzofused heterocyclic herbicides” (FMC Corporation, priority 1997, dated 2002)
